Patent publication EP1247803A2, “Indolinone compounds suitable for modulation of protein kinases” (Sugen, Inc., priority 1996, dated 1998)

How the values were obtained:
[1] = system: MET; assay: MET biochemical kinase assay; set-up: species or system human; concentration or dose not given beside the values
How it was run: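 Plates coated with anti-rabbit Fc bind a rabbit anti-MET antibody that captures receptor from cell lysates; unbound protein is washed off before compound and ATP-containing kinase buffer go in.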

[2] = target: T1, EGFR (Homo sapiens, UniProt P00533); assay: EGFR ELISA assay (in vitro kinase activity, EGFR captured from A431 cell lysate); assay type: biochemical; set-up: concentration or dose not given beside the values
T1 construct: Add 7 ug A431 cell lysate per well (EGFR source); endogenous in cells; host or cells: A431
T1 sequence (P00533 25-1210): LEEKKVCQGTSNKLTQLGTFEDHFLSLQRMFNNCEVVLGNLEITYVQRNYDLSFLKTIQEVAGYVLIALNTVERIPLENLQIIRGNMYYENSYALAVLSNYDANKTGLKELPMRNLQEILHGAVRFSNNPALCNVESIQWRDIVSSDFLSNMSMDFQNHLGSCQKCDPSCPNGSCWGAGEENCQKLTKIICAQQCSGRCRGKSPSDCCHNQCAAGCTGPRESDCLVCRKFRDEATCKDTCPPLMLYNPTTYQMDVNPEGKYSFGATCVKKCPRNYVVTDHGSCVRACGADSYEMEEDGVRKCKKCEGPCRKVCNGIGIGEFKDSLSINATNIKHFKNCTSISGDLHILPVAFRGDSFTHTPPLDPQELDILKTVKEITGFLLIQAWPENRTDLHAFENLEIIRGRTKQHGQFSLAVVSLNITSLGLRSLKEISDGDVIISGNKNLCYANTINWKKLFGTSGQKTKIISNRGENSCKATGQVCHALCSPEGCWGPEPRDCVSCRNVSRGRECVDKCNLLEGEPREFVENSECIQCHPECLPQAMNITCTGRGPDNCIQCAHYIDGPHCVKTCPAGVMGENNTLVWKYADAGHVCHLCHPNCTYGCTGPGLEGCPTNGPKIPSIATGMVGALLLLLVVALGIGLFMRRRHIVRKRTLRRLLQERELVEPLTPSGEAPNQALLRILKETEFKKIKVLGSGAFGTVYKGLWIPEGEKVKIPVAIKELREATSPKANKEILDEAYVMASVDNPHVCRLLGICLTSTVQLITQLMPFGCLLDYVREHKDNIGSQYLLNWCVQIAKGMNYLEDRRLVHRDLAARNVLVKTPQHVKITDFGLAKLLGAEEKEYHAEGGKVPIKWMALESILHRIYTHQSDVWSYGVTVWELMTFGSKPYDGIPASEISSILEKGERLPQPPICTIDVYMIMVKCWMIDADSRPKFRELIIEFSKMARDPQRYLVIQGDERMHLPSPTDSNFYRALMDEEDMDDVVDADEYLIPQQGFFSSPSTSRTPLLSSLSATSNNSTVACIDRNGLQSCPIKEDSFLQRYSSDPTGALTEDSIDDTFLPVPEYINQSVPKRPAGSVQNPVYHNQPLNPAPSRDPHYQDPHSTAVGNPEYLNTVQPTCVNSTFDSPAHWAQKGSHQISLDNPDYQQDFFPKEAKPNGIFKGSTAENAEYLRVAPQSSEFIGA
How it was run: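 EGFR from A431 lysate was captured on anti-EGFR antibody-coated plates and preincubated with compounds for 30 min. Autophosphorylation ran 5 min with 3 uM ATP and 5 mM MnCl2 (final), stopped with 20 mM EDTA. Phosphotyrosine was detected by anti-pTyr ELISA with ABTS/H2O2, read at 410 nm.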

SMILES | Met Kinase % Inhibition [1] | Biochem EGFR %Inhibition [2]
Cc1c(Br)ccc2c1C(=Cc1nc3ccccc3n1C)C(=O)N2 [10721/C02] | 59.2% | 68.3%
CNS(=O)(=O)c1ccc2c(c1)C(=Cc1ccc(O)c(C(C)(C)C)c1)C(=O)N2 [10721/D09] | -4.9% | 15.3%
O=C1Nc2ccc(S(=O)(=O)N3CCOCC3)cc2C1=Cc1ncc[nH]1 [10720/F11] | 1.6% | -61.1%
COc1ccc(O)c(C=C2C(=O)Nc3ccc(S(=O)(=O)N4CCOCC4)cc32)c1 [10720/F10] | 42.8% | 6.0%
CNS(=O)(=O)c1ccc2c(c1)C(=Cc1ncc[nH]1)C(=O)N2 [10720/D11] | 23.9% | -5.5%
O=C1Nc2c(Br)cc(Br)cc2C1=Cc1cc2c([nH]1)CCCC2 [10721/A05] | 52.9% | 41.4%
O=C1Nc2ccc(CCCl)cc2C1=Cc1ccccc1O [10720/G05] | 37.0% | 27.0%
CSc1ccc(C=C2C(=O)Nc3ccc(S(=O)(=O)Nc4ccc(C(F)(F)F)cc4)cc32)s1 [10720/E07] | 30.3% | 55.1%
Cc1c(Br)ccc2c1C(=Cc1nn(C)cc1Cl)C(=O)N2 [10721/C03] | 6.2% | 64.6%
O=C1Nc2ccc(S(=O)(=O)N3CCOCC3)cc2C1=Cc1ccccc1 [10720/F06] | 21.9% | -24.3%
CC(C)(C)c1cc(C=C2C(=O)Nc3ccc(I)cc32)cc(Br)c1O [10721/B10] | 30.4% | 42.9%
Cc1c(Br)ccc2c1C(=Cc1cc3c([nH]1)CCCC3)C(=O)N2 [10721/C05] | 48.7% | 68.1%
CNS(=O)(=O)c1ccc2c(c1)C(=Cc1[nH]c(C)cc1C)C(=O)N2 [10721/D08] | 45.3% | 31.7%
O=C1Nc2ccc(CCCl)cc2C1=Cc1ncc[nH]1 [10720/G11] | 36.2% | -56.7%
CCOc1cc(C=C2C(=O)Nc3ccc(S(=O)(=O)NC)cc32)ccc1O [10720/D09] | 62.8% | 2.4%
Cn1cc(Cl)c(C=C2C(=O)Nc3c(Br)cc(Br)cc32)n1 [10721/A03] | 56.2% | 25.5%
COc1ccc(C=C2C(=O)Nc3ccc(S(=O)(=O)Nc4ccc(C(F)(F)F)cc4)cc32)cc1OC [10720/E04] | 46.7% | -2.7%
CCOc1ccccc1C=C1C(=O)Nc2c(Br)cc(Br)cc21 [10717/A02] | 46.1% | 24.3%
O=C1Nc2ccc(I)cc2C1=Cc1cc2c([nH]1)CCCC2 [10721/B05] | 70.8% | 76.8%
O=C1Nc2c(Br)cc(Br)cc2C1=Cc1cc([N+](=O)[O-])cc(CCl)c1O [10721/A06] | 81.3% | 32.7%
COc1cc(O)ccc1C=C1C(=O)Nc2ccc(S(=O)(=O)Nc3ccc(C(F)(F)F)cc3)cc21 [10720/E03] | 54.9% | 54.4%
Cc1cc(C)c(C=C2C(=O)Nc3ccc(Br)c(C)c32)[nH]1 [10721/C08] | 24.8% | 38.3%
CNS(=O)(=O)c1ccc2c(c1)C(=Cc1cc(OC)ccc1O)C(=O)N2 [10720/D10] | 51.0% | -10.2%
CNS(=O)(=O)c1ccc2c(c1)C(=Cc1c(C)cc(O)cc1O)C(=O)N2 [10720/D08] | 42.1% | -13.3%
CNS(=O)(=O)c1ccc2c(c1)C(=Cc1ccc(SC)s1)C(=O)N2 [10720/D07] | 36.2% | 14.8%
O=C1Nc2c(Br)cc(Br)cc2C1=Cc1ccc(Cl)s1 [10721/A07] | 29.7% | 35.2%
Cc1cc(C=C2C(=O)Nc3ccc(Br)c(C)c32)sc1C [10721/C04] | 88.7% | 77.7%
Cc1cc(C=C2C(=O)Nc3c(Br)cc(Br)cc32)sc1C [10721/A04] | 85.0% | 59.0%
Cc1c(Br)ccc2c1C(=Cc1ccc(F)cc1)C(=O)N2 [10717/C05] | 44.6% | 13.1%
